Test results taken from PubChem BioAssay (NCI).
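Results reflect a 48-hour exposure of cells in 96-well plates to compound at five concentrations. The concentration for full growth arrest is given as TGI.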

Legend:
Assay in all cases: NCI anticancer screen, dose series, 48 h
[1] = system: TK-10 renal
[2] = system: A498 renal
[3] = system: OVCAR-8 ovarian
[4] = system: SK-MEL-28 melanoma
[5] = system: RXF 393 renal
[6] = system: DU-145 prostate
[7] = system: SK-MEL-5 melanoma
[8] = system: UACC-257 melanoma
[9] = system: MCF7 breast
[10] = system: BT-549 breast
[11] = system: UACC-62 melanoma
[12] = system: HCC-2998 colon
[13] = system: SK-OV-3 ovarian
[14] = system: SF-268 CNS
[15] = system: SNB-19 CNS
[16] = system: NCI-H23 lung
[17] = system: MOLT-4 leukemia
[18] = system: NCI-H522 lung
[19] = system: ACHN renal
[20] = system: K-562 leukemia
[21] = system: MALME-3M melanoma
[22] = system: IGROV1 ovarian
[23] = system: SF-295 CNS
[24] = system: KM12 colon
[25] = system: OVCAR-5 ovarian
[26] = system: OVCAR-3 ovarian
[27] = system: NCI-H460 lung
[28] = system: PC-3 prostate
[29] = system: T-47D breast
[30] = system: SK-MEL-2 melanoma
[31] = system: HOP-62 NSCLC
[32] = system: MDA-MB-231 breast
[33] = system: M14 melanoma
[34] = system: COLO 205 colon
[35] = system: MDA-MB-435
[36] = system: U251 CNS
[37] = system: HS 578T breast
[38] = system: HCT-116 colon
[39] = system: EKVX NSCLC
[40] = system: SW-620 colon
[41] = system: CAKI-1 renal
[42] = system: HCT-15 colon
[43] = system: RPMI-8226 leukemia
[44] = system: 786-0 renal
[45] = system: MDA-N
[46] = system: A549 NSCLC
[47] = system: UO-31 renal
[48] = system: NCI/ADR-RES ovarian
[49] = system: HOP-92 NSCLC
[50] = system: SNB-75 CNS
[51] = system: HT29 colon
[52] = system: OVCAR-4 ovarian
[53] = system: SN12C renal
[54] = system: SF-539 CNS
[55] = system: CCRF-CEM leukemia
[56] = system: LOX IMVI melanoma
[57] = system: NCI-H226 lung
[58] = system: HL-60(TB) leukemia
[59] = system: SR leukemia

Compound: CCOC(=O)c1cc(C2CCN(Cc3ccccc3)C2=O)c(C(=O)/C=C(/C)N)[nH]1 (stereo not drawn)
- TGI [1]: > 100 µM
- TGI [2]: > 100 µM
- TGI [3]: > 100 µM
- TGI [4]: > 100 µM
- TGI [5]: > 100 µM
- TGI [6]: > 100 µM
- TGI [7]: > 100 µM
- TGI [8]: > 100 µM
- TGI [9]: > 100 µM
- TGI [10]: > 100 µM
- TGI [11]: > 100 µM
- TGI [12]: > 100 µM
- TGI [13]: > 100 µM
- TGI [14]: > 100 µM
- TGI [15]: > 100 µM
- TGI [16]: > 100 µM
- TGI [17]: > 100 µM
- TGI [18]: > 100 µM
- TGI [19]: > 100 µM
- TGI [20]: > 100 µM
- TGI [21]: > 100 µM
- TGI [22]: > 100 µM
- TGI [23]: > 100 µM
- TGI [24]: > 100 µM
- TGI [25]: > 100 µM
- TGI [26]: > 100 µM
- TGI [27]: > 100 µM
- TGI [28]: > 100 µM
- TGI [29]: > 100 µM
- TGI [30]: > 100 µM
- TGI [31]: > 100 µM
- TGI [32]: > 100 µM
- TGI [33]: > 100 µM
- TGI [34]: > 100 µM
- TGI [35]: > 100 µM
- TGI [36]: > 100 µM
- TGI [37]: > 100 µM
- TGI [38]: > 100 µM
- TGI [39]: > 100 µM
- TGI [40]: > 100 µM
- TGI [41]: > 100 µM
- TGI [42]: > 100 µM
- TGI [43]: > 100 µM
- TGI [44]: > 100 µM
- TGI [45]: > 100 µM
- TGI [46]: > 100 µM
- TGI [47]: > 100 µM
- TGI [48]: > 100 µM
- TGI [49]: 97.5 µM
- TGI [50]: > 100 µM
- TGI [51]: > 100 µM
- TGI [52]: > 100 µM

Compound: O=C(O)c1ccc(Nc2nc3ccc(C(F)(F)F)cc3nc2-c2ccccc2)cc1
- TGI [1]: 52.4 µM
- TGI [53]: > 100 µM
- TGI [3]: > 100 µM
- TGI [4]: > 100 µM
- TGI [54]: 90.8 µM
- TGI [5]: > 100 µM
- TGI [6]: > 10 µM
- TGI [7]: > 100 µM
- TGI [8]: > 100 µM
- TGI [9]: > 100 µM
- TGI [55]: > 100 µM
- TGI [11]: 35.8 µM
- TGI [12]: 40.3 µM
- TGI [14]: > 100 µM
- TGI [15]: > 100 µM
- TGI [16]: > 100 µM
- TGI [17]: > 100 µM
- TGI [18]: > 100 µM
- TGI [19]: > 100 µM
- TGI [56]: > 100 µM
- TGI [20]: > 100 µM
- TGI [21]: > 100 µM
- TGI [22]: > 100 µM
- TGI [23]: > 100 µM
- TGI [57]: > 100 µM
- TGI [24]: > 10 µM
- TGI [25]: > 100 µM
- TGI [26]: 72.6 µM
- TGI [27]: > 100 µM
- TGI [58]: 66.3 µM
- TGI [28]: > 100 µM
- TGI [29]: 52.8 µM
- TGI [31]: > 100 µM
- TGI [33]: > 100 µM
- TGI [35]: > 100 µM
- TGI [36]: > 100 µM
- TGI [37]: > 100 µM
- TGI [38]: > 100 µM
- TGI [39]: > 100 µM
- TGI [40]: > 100 µM
- TGI [41]: > 100 µM
- TGI [42]: 57.3 µM
- TGI [43]: > 100 µM
- TGI [44]: > 100 µM
- TGI [45]: > 100 µM
- TGI [46]: > 100 µM
- TGI [47]: 55.1 µM
- TGI [48]: 96.2 µM
- TGI [50]: > 100 µM
- TGI [51]: > 10 µM
- TGI [59]: > 100 µM
